Blank lines part the entries; values can stand above or below the compound they belong to.
Experiment: solvent given as SMILES

SMILES: O=C(N/N=C/c1ccccc1O)c1ccccc1O
absorption maximum (in C1CCOC1): 334 nm
absorption maximum (in CC#N): 335 nm
absorption maximum (in CC(C)=O): 331 nm
absorption maximum (in CCO): 400 nm
absorption maximum (in CN(C)C=O): 412 nm
absorption maximum (in CS(C)=O): 385 nm
absorption maximum (in ClCCl): 335 nm

SMILES: COC(=O)c1ccc(C(=O)NC(C)(C)C)c2c1ccc1c3ccccc3c3ccccc3c12
absorption maximum (in ClCCl): 336 nm

SMILES: CNc1ccc2c(c1)C(=O)c1ccccc1-2
absorption maximum (in C1CCCCC1): 474 nm
absorption maximum (in CC#N): 508 nm
absorption maximum (in CCO): 511 nm
absorption maximum (in c1ccccc1): 491 nm

SMILES: Cc1nc2cccc(-c3nc4ccccc4o3)c2c(=O)[nH]1
absorption maximum (in CN(C)C=O): 310 nm

SMILES: N#Cc1c(-n2c3ccc(I)cc3c3cc(I)ccc32)c(C#N)c(-n2c3ccc(I)cc3c3cc(I)ccc32)c(-n2c3ccc(I)cc3c3cc(I)ccc32)c1-n1c2ccc(I)cc2c2cc(I)ccc21
absorption maximum (in Cc1ccccc1): 384 nm

SMILES: COc1ccc2c(c1)c1cc(OC)ccc1n2-c1ccc2c(c1)-c1cc(-n3c4ccc(OC)cc4c4cc(OC)ccc43)ccc1P2(=O)c1ccccc1
absorption maximum (in Cc1ccccc1): 369 nm

SMILES: O=C1c2cc(-c3ccccc3)ccc2-c2ccc(-c3ccccc3)cc21
absorption maximum (in C1CCOC1): 337 nm

SMILES: FC(F)(F)c1ccc(-c2ccc(-c3cc(-c4ccccn4)nc(-c4ccccn4)c3)cc2)cc1
absorption maximum (in ClCCl): 289 nm

SMILES: CCCCCCCCOC(=O)c1cc2ccc3ccccc3c2c(C#N)c1N
absorption maximum (in Cc1ccccc1): 435 nm

SMILES: Cc1cc(O)c(C(=O)/C=C/c2ccc([N+](=O)[O-])cc2)c(=O)o1
absorption maximum (in CC#N): 358 nm
absorption maximum (in ClCCl): 361 nm

SMILES: c1ccc(-c2nc(-c3ccccc3)nc(-c3ccc(-n4c5ccccc5c5c4c4ccccc4n5-c4ccccc4)cc3)n2)cc1
absorption maximum (in Cc1ccccc1): 398 nm

SMILES: CCN(CC)c1ccc(-n2c(C)ccc2C)cc1
absorption maximum (in CC#N): 304 nm
absorption maximum (in CCCCCC): 310 nm

SMILES: c1ccc(-c2nc(-c3ccccc3)nc(-c3ccc(-n4c5ccccc5c5ccc6c(c7ccccc7n6-c6ccccc6)c54)cc3)n2)cc1
absorption maximum (in Cc1ccccc1): 360 nm

SMILES: CN(C)c1cccc2c1ccc1c(=O)oc(-c3ccc(C(F)(F)F)cc3)cc12
absorption maximum (in CC(C)=O): 392 nm
absorption maximum (in CCCCCCCCO): 395 nm
absorption maximum (in CCCCO): 394 nm
absorption maximum (in CCCO): 393 nm
absorption maximum (in CCO): 393 nm
absorption maximum (in CCOC(C)=O): 393 nm
absorption maximum (in CN(C)C=O): 395 nm
absorption maximum (in CO): 391 nm
absorption maximum (in ClC(Cl)Cl): 395 nm

SMILES: CCc1c(C)[nH]c(C2=[N+]3C(=Cc4c(C)cc(C)n4[B-]3(F)F)c3ccccc32)c1C
absorption maximum (in C1CCOC1): 615 nm
absorption maximum (in CC#N): 607 nm
absorption maximum (in CCCCCC): 616 nm
absorption maximum (in CO): 610 nm
absorption maximum (in Cc1ccccc1): 623 nm
absorption maximum (in ClCCl): 616 nm

SMILES: c1ccc(-p2c(-c3cccs3)cc3ccccc32)cc1 (centres undefined)
absorption maximum (in C1CCOC1): 350 nm

SMILES: CCCCCCN1C(=O)c2cccc3c(-c4ccc(-c5ccc6c7c(cccc57)C(=O)N(CCCCCC)C6=O)s4)ccc(c23)C1=O
absorption maximum (in ClC(Cl)Cl): 395 nm

SMILES: [NH3+]c1cc([NH3+])cc(-c2nc3ccccc3s2)c1
absorption maximum (in O): 315 nm

SMILES: COC(=O)/C(C#N)=C/c1cn(-c2ccccc2)nc1-c1ccc([N+](=O)[O-])cc1
absorption maximum (in C1CCOC1): 333 nm
absorption maximum (in C1COCCO1): 333 nm
absorption maximum (in CCO): 335 nm
absorption maximum (in CCOC(C)=O): 330 nm
absorption maximum (in CN(C)C=O): 330 nm
absorption maximum (in CO): 330 nm
absorption maximum (in CS(C)=O): 330 nm
absorption maximum (in Cc1ccccc1): 347 nm
absorption maximum (in ClC(Cl)Cl): 339 nm

SMILES: CCN(CC)c1ccc2cc(/C=C(\C#N)c3nc4ccccc4s3)c(=O)oc2c1
absorption maximum (in C1COCCO1): 498 nm
absorption maximum (in CC#N): 506 nm
absorption maximum (in CCO): 511 nm
absorption maximum (in CCOC(C)=O): 504 nm
absorption maximum (in CN(C)C=O): 528 nm
absorption maximum (in CO): 512 nm
absorption maximum (in CS(C)=O): 525 nm
absorption maximum (in Cc1ccccc1): 501 nm
absorption maximum (in ClCCl): 509 nm

SMILES: COc1ccc(-c2ccc3c(c2)[Si](C)(C)c2cc(-c4ccc(OC)cc4)ccc2C=C3)cc1
absorption maximum (in ClCCl): 385 nm

SMILES: CN(C)c1cc(-c2ccc(C#Cc3ccccc3)cc2)cc2ccccc12
absorption maximum (in CC#N): 302.58 nm
absorption maximum (in CCO): 300.29 nm
absorption maximum (in ClCCl): 304 nm

SMILES: Cc1cc(O)c(C(=O)/C=C/c2ccccc2Cl)c(=O)o1
absorption maximum (in CC#N): 353 nm
absorption maximum (in ClCCl): 355 nm

SMILES: COc1ccc(-c2nc(/C(C#N)=C/c3ccc(C#N)cc3)sc2-c2ccc(OC)cc2)cc1
absorption maximum (in CC#N): 407 nm

SMILES: CCOC(=O)c1sc2nc(-c3ccccc3)c(C)c(C#N)c2c1N
absorption maximum (in C1COCCO1): 420 nm
absorption maximum (in CC#N): 412 nm
absorption maximum (in CCO): 423 nm
absorption maximum (in CCOC(C)=O): 419 nm
absorption maximum (in ClC(Cl)Cl): 416 nm
absorption maximum (in c1ccccc1): 418 nm

SMILES: c1ccc(-c2nc(-c3ccc(-c4cncc5ccccc45)cc3)[nH]c2-c2ccccc2)cc1
absorption maximum (in C1CCOC1): 333 nm

SMILES: CCC1=C(C)C2=C(C)c3cccn3[B-](F)(F)[N+]2=C1C
absorption maximum (in C1CCCCC1): 504 nm
absorption maximum (in CC(C)=O): 495 nm
absorption maximum (in CCO): 497 nm
absorption maximum (in CCOC(C)=O): 496 nm
absorption maximum (in CO): 495.5 nm
absorption maximum (in OCC(F)(F)F): 492 nm

SMILES: N#Cc1c[nH]c2ccccc12
absorption maximum (in C1COCCO1): 277.3 nm
absorption maximum (in CC#N): 276.25 nm

SMILES: N#Cc1cc(-n2c3ccccc3c3ccccc32)c(-n2c3ccccc3c3ccccc32)cc1C#N
absorption maximum (in C1CCOC1): 368 nm
absorption maximum (in CC#N): 367 nm
absorption maximum (in Cc1ccccc1): 375 nm
absorption maximum (in ClCCl): 364 nm

SMILES: N#Cc1cc(C#N)c(-c2cc(-n3c4ccccc4c4ccccc43)cc(-n3c4ccccc4c4ccccc43)c2)cc1-c1ccc(N(c2ccccc2)c2ccccc2)cc1
absorption maximum (in Cc1ccccc1): 405 nm

SMILES: C=Cc1cc2ccc(OC(=O)c3ccccc3)cc2oc1=O
absorption maximum (in CC#N): 328 nm

The remaining lines, values ahead:

absorption maximum (in O): 294.99 nm
SMILES: Nc1nc2c([nH]c(=O)n2[C@H]2C[C@H](O)[C@@H](CO)O2)c(=O)[nH]1

absorption maximum (in C1CCCCC1): 390 nm
absorption maximum (in CC#N): 398 nm
absorption maximum (in CC(C)O): 397 nm
absorption maximum (in CO): 397 nm
absorption maximum (in CS(C)=O): 408 nm
absorption maximum (in ClC(Cl)Cl): 401 nm
absorption maximum (in c1ccccc1): 397 nm
SMILES: CN(C)c1ccc2nc(-c3ccc(C(=O)OC[C@H](NC(=O)OC(C)(C)C)C(=O)OCc4ccccc4)cc3)sc2c1

absorption maximum (in C1CCOC1): 425 nm
absorption maximum (in CC#N): 409 nm
absorption maximum (in CO): 371 nm
absorption maximum (in ClCCl): 413 nm
SMILES: Cc1s[c+](N2CCOCC2)sc1-c1cc(I)cc(I)c1[O-]

absorption maximum (in CCO): 442 nm
SMILES: CCCCOc1c(C=C2Sc3ccccc3N2C)c(=O)c1=O

absorption maximum (in CCCCCC): 508 nm
absorption maximum (in CO): 503 nm
absorption maximum (in ClCCl): 506 nm
SMILES: CC1=CC(C)=[N+]2C1=Cc1c(C)cc(C)n1[B-]2(F)F

absorption maximum (in C1CCOC1): 516 nm
absorption maximum (in CN1CCCC1=O): 529 nm
absorption maximum (in CN(C)C=O): 530 nm
SMILES: O=C1OC(=O)c2cc(Oc3ccccc3)c3c4ccc5c6c(cc(Oc7ccccc7)c(c7ccc1c2c73)c64)C(=O)OC5=O

absorption maximum (in CC#N): 446 nm
SMILES: Cc1ccc2c(c1)nc1c(=O)n(C)c(=O)nc-1n2C

absorption maximum (in ClCCl): 381 nm
SMILES: CCB1c2ccccc2Nc2ccccc21

absorption maximum (in C1CCCCC1): 351 nm
SMILES: B1C=Cc2ccc3ccccc3c2N1

absorption maximum (in CO): 295 nm
SMILES: Oc1ccc(-c2nc(-c3ccccc3)c(-c3ccccc3)[nH]2)cc1

absorption maximum (in CC#N): 411 nm
SMILES: CN(C)c1ccc(-c2nc3nc4ccccc4nc3n2-c2ccc(C(C)(C)C)cc2)cc1

absorption maximum (in C1CCOC1): 381 nm
absorption maximum (in CC#N): 381 nm
absorption maximum (in CCCCCCC): 373 nm
absorption maximum (in CS(C)=O): 393 nm
SMILES: C(=C\c1ccncn1)/c1ccc(-c2ccc(N(c3ccccc3)c3ccccc3)cc2)cc1

absorption maximum (in C1COCCO1): 445 nm
absorption maximum (in CC#N): 448 nm
absorption maximum (in ClCCl): 453 nm
SMILES: CN(C)c1ccc(/C=C/c2nc3ccc(Br)cc3nc2-c2ccccc2)cc1

absorption maximum (in ClC(Cl)Cl): 568 nm
SMILES: CCCCCCCCCCCCOc1cc2c3c(ccc4c5c(SCCCCCCCCCCCC)cc6c7c(ccc(c1c34)c75)C(=O)N(C1CCCCC1)C6=O)C(=O)N(C1CCCCC1)C2=O

absorption maximum (in ClCCl): 417 nm
SMILES: CCCCN(CCCC)c1ccc(C#Cc2cc(C#Cc3ccc([N+](=O)[O-])cc3)c(C#Cc3ccc([N+](=O)[O-])cc3)cc2C#Cc2ccc(N(CCCC)CCCC)cc2)cc1

absorption maximum (in CCCCCC): 592 nm
SMILES: F[B-]1(F)n2c(ccc2-c2ccccc2)C(C(F)(F)F)=C2C=CC(c3ccccc3)=[N+]21

absorption maximum (in C1COCCO1): 709 nm
absorption maximum (in CCO): 696 nm
absorption maximum (in CN(C)C=O): 696 nm
absorption maximum (in ClC(Cl)Cl): 704 nm
SMILES: CCCCCCCN1C(=CC2=C([O-])C(=Cc3sc4ccccc4[n+]3CCCCCCC)C2=C(C#N)C#N)Sc2ccccc21

absorption maximum (in C1CCOC1): 634 nm
SMILES: Cc1ccc(C2=C3C=C4C(=[N+]3[B-](F)(F)n3c2cc2c3-c3ccccc3C23c2ccccc2-c2ccccc23)c2ccccc2C42c3ccccc3-c3ccccc32)cc1

absorption maximum (in C1CCCCC1): 407 nm
absorption maximum (in CC#N): 420 nm
absorption maximum (in CCO): 431 nm
absorption maximum (in c1ccccc1): 416 nm
SMILES: Nc1cccc2c1C(=O)c1ccccc1-2

absorption maximum (in C1CCCCC1): 403 nm
absorption maximum (in CC#N): 405 nm
absorption maximum (in CO): 404 nm
absorption maximum (in ClCCl): 406 nm
SMILES: COc1c2ccccc2c(OC)c2c1c1c(F)cccc1n2C

absorption maximum (in CC#N): 333 nm
SMILES: CN(C)c1ccc(C#Cc2ccc3ccc(=O)oc3c2)cc1

absorption maximum (in ClC(Cl)Cl): 450 nm
SMILES: F[B-]1(F)OC(c2cc3c4c(c2)CCCN4CCC3)=Cc2cccc[n+]21

absorption maximum (in CC#N): 361 nm
absorption maximum (in CCCCOCCCC): 361 nm
absorption maximum (in CO): 357 nm
SMILES: Nc1ccc2ccc3cccc4ccc1c2c34

absorption maximum (in C1CCCCC1): 579.5 nm
absorption maximum (in CCOC(C)=O): 574 nm
SMILES: CC1=[N+]2C(=C(Oc3ccc4c(c3)CC[C@@H]3[C@@H]4CC[C@]4(C)C(=O)CC[C@@H]34)c3ccc(C)n3[B-]2(F)F)C=C1c1cc2n(c1)[B-](F)(F)[N+]1=CC=CC1=C2c1c(C)cc(C)cc1C

absorption maximum (in CC#N): 465 nm
SMILES: Cc1ccc(S(=O)(=O)Nc2c(/C=C/c3ccccc3)sc(-c3ccc(N(C)C)cc3)c2-c2ccsc2)cc1

absorption maximum (in ClC(Cl)Cl): 360 nm
SMILES: CC(=C(C#Cc1ccccc1)C#Cc1ccccc1)c1ccc(C(C)=C(C#Cc2ccccc2)C#Cc2ccccc2)cc1
